Measurements taken from patent US5192799A, “Coumaran group containing amine compounds and their acid addition salts and quaternary ammonium salts and the use thereof as anti arrhythmic agents and as psychotropic agents” (Mitsui Petrochemical Industries, Ltd., priority 1987, dated 1993).
Like-named read-outs stand apart in the source and are kept apart here.

Assays:
serotonine 2 receptor = molecular target: T1, serotonine 2 receptor (Rattus norvegicus, UniProt P14842); experiment: [3H]ketanserin binding assay (affinity for serotonine 2 receptor); parameters: species or system Wistar male rat; conditions: rat frontal cortex, 1 nM [3H] ketanserin, 37° C., 10 minutes
T1 construct: frontal cortex fraction prepared from the brain of a Wistar male rat; from tissue; host or cells: rat brain frontal cortex (Wistar, male), membrane fraction
Procedure: (§1) Striatal membranes fractions were prepared from a rat brain, and the affinity of the compounds of this invention on dopamine 2 receptors was determined by using [^3 H] spiperone assay from membranes fractions as an index. Moreover, frontal cortex membranes were prepared from a rat brain, and the affinity of the test drugs on serotonine 2 receptor was determined by using [^3 H] ketenserin binding assay. It was shown that the compounds of general formula (1) of the invention have marked anti-dopamine activity and anti-serotonine activity.
[^3 H] ketanserin binding assay
The affinity of the compound of the invention was determined on the basis of the ability to substitute [^3 H] ketanserin from a frontal cortex fraction prepared from the brain of a Wistar male rat.
(§2) The rat was decapitated, and the brain was obtained. The frontal cortex was homogenized in 40 volumes of 50 mM Tris-HCl buffer (pH 7.6), and then centrifuged. The pellets were again homogenized in 100 volumes of the same buffer, and used in a binding test. The binding test was conducted by the following procedure.
(§3) The frontal cortex (original tissue weight 1 mg/ml), 100 microliters of a test drug and 1 nM of [^3 H] ketanserin were incubated at 37° C. for 10 minutes in 50 mM Tris-HCl buffer (pH 7.6). Then, the reaction mixture was suction-filtered through a glass fiber filter (Watmann GF/B) and washed with a buffer three times.
(§4) The filter was put in a scintillation cocktail (ACSII, Amersham Co.), and after mixing, left to stand overnight. The radioactivity held on the filter was measured by a liquid scintillation counter. The nonspecific binding was measured in the presence of 1 μM of methysergide. The concentration of the test drug which inhibited 50% of a specific binding was determined from the graph and defined as IC5. Ki was calculated from the following equation. [formula]

dopamine 2 receptor = molecular target: T2, dopamine 2 receptor (Rattus norvegicus, UniProt P61169); experiment: [3H]spiperone binding assay (affinity for dopamine 2 receptor); parameters: species or system Wistar-strain male rat; conditions: rat striatal membranes, 0.5 nM [3H] spiperone, 37° C., 10 minutes
T2 construct: membrane fractions prepared from the brain a Wistarstrain male rat; from tissue; host or cells: rat brain striatum (Wistar, male), membrane fraction
Procedure: as §1
[^3 H]spiperone binding assay
The affinity of the compounds of this invention to the dopamine 2 receptor was determined on the basis of the ability to substitute [^3 H] spiperone from stratal membrane fractions prepared from the brain a Wistarstrain male rat.
as §2, with “striatum” for “frontal cortex”, “50” for “100”
as §3, with “The stria” for “The frontal cortex”, “weight 20” for “weight 1”, “and 0.5” for “and 1”, “H] spiperone” for “H] ketanserin”
as §4, with “(+) butaclamol.” for “methysergide.”, “IC50.” for “IC5.”

in vivo = conditions: mouse, in vivo
Procedure: By using male ddY-strain 5-week old mice (3 to 4 per group), the compounds of general formula (1) were each administered orally or intraperitoneally as a solution in saline or as a suspension in methyl cellulose, and 24 hours after the administration, the toxicity of the compounds was evaluated.

[1] = system: right ventricle (effective refractory period); experiment: Activity on ERP of the right ventricle; format: in vivo, adult mongrel dog; conditions: Canis lupus familiaris, ERP before drug = 100%, read-out: ERP % (ERP prolonging activity)
Procedure: The pharmacological effects of the compounds of this invention represented by general formula (1) were studied. By using the heart of an adult mongrel dog, the activity of the compounds of general formula (1) were tested in vitro and in vivo. The heart of an anaethetized dog was extracted and suspended in a chamber at 37° C. in Tyrode's solution. The drug was added to Tyrode's solution being perfused through the heart specimen, and electrophysiological effects of the drug on cardiac action potential duration (APD) and maximum rate of depolarization were studied. An anaethetized dog was cut open at the chest. […] In an anaethetized and open-chested adult mongrel dug, a silver-silver chloride electrode was sutured to the right ventricle, and ventricular pacing was performed at a stimulation interval of 400 msec for a duration time of 4 msec, twice diastolic threshold. Then, a small amount of alcohol was injected through the sinus artery to extinguish the pacemaker activity, and under ventricular pacing, ERP was measured. Ten stimulations were taken as one train, and the interval between trains when the response to the first stimulation disappeared was defined as ERP. […] ERP before drug administration (intravenously or intraduodenally) was taken as 100%, and ERP prolonging activity of the drugs was expressed by %.

Purkinje fiber = experiment: Effect on APD (APD75, field-stimulated right ventricular free wall); format: cell-based, adult mongrel dog; conditions: Canis lupus familiaris, purkinje, 20 min, 20 minutes incubation, 37° C., 1 Hz, control before drug = 100%, read-out: APD75 % (percent change in APD75); for activation at 1 µg/mL: dose 1 μg/ml; for activation at 3 µg/mL: dose 3 μg/ml; for activation at 10 µg/mL: dose 10 μg/ml
Procedure: The pharmacological effects of the compounds of this invention represented by general formula (1) were studied. By using the heart of an adult mongrel dog, the activity of the compounds of general formula (1) were tested in vitro and in vivo. The heart of an anaethetized dog was extracted and suspended in a chamber at 37° C. in Tyrode's solution. The drug was added to Tyrode's solution being perfused through the heart specimen, and electrophysiological effects of the drug on cardiac action potential duration (APD) and maximum rate of depolarization were studied. An anaethetized dog was cut open at the chest.
An adult mongrel dog was anaethetized with intravenous administration of pentobarbital, 30 mg/kg. The heart was quickly removed, and the right ventricular free wall was dissected in the Tyrode's solution. The right ventricular free wall was fixed within an incubator at 37° C., and field stimulation at 1 Hz was carried out. Intracellular potentials were measured by piercing glass microelectrodes (10-20 megaohms) into the Purkinje fiber and the wave form of cardiac action potential drawn on an oscilloBraun tube via an amplifier was analyzed by a computer. Value of APD was obtained at 75% of full repolarization (APD75). The drug was added to Tyrode's solution (20 ml) perfused through the specimen. The effect of the drug was expressed by a percent change in APD75 after incubation for 20 minutes with the control value of APD before application of the drug being taken as 100%.

[2] = po, LD50 p.o., p.o., 24 hours after administration, male ddY mice

T2 sequence (P61169 whole entry): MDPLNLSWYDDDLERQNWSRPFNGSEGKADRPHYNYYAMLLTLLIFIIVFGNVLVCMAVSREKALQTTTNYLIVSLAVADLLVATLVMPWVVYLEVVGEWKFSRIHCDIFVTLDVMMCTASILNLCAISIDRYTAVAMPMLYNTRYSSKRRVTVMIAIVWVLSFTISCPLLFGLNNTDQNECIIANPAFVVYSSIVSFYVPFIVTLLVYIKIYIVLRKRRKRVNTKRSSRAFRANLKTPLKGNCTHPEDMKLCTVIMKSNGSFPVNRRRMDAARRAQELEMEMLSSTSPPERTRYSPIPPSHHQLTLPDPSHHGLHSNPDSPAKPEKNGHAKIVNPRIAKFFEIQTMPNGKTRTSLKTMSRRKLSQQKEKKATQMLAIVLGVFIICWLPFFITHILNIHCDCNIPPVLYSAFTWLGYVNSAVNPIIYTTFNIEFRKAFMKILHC
T1 sequence (P14842 whole entry): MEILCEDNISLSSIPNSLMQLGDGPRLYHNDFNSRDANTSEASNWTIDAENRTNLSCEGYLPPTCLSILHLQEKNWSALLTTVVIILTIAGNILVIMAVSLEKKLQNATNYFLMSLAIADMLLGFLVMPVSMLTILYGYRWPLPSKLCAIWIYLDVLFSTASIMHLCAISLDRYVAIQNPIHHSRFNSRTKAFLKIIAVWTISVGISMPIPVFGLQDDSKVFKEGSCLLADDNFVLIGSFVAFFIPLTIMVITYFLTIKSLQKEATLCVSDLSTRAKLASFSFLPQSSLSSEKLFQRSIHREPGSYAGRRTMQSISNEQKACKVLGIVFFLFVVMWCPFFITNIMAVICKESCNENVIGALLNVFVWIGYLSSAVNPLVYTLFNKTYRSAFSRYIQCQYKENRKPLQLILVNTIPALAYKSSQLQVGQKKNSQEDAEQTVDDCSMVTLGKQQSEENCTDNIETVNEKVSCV

Ki (serotonine 2 receptor) | Ki (dopamine 2 receptor) | Compound | LD50 at 24 h (in vivo; [2]) | change in vivo at 0.1 mg/kg ([1]; iv, 0.1 mg/kg i.v.) | change in vivo at 0.3 mg/kg ([1]; iv, 0.3 mg/kg i.v.) | change in vivo at 1 mg/kg ([1]; iv, 1 mg/kg i.v.) | change in vivo at 3 mg/kg ([1]; iv, 3 mg/kg i.v.) | activation at 3 µg/mL (Purkinje fiber) | activation at 10 µg/mL (Purkinje fiber) | other results
> 600 nM | > 400 nM | O=C1COc2cc(OCCCN(Cc3ccccc3)Cc3ccccc3)ccc21 [Compound 176] |  |  |  |  |  |  |  | 
 |  | CCCCCCC[N+](CC)(CC)CCCOc1ccc2c(c1)OCC2=O.[Br-] [Compound 286, (3-oxo-6-coumaranoxypropyl)diethylheptyl ammonium bromide] | 300 to 1000 mg/kg | 5.7 ± 0.3% | 15.7 ± 5.5% | 15.7 ± 5.5% | 17.7 ± 7.3% | 29% |  | LD50 at 24 h (in vivo; ip, LD50 i.p., i.p., 24 hours after administration, male ddY mice): 100 to 500 mg/kg; change in vivo at 0.1 mg/kg ([1]; 0.1 mg/kg i.d.): 0%; change in vivo at 0.3 mg/kg ([1]; 0.3 mg/kg i.d.): 0%; change in vivo at 1 mg/kg ([1]; 1 mg/kg i.d.): 10%; change in vivo at 3 mg/kg ([1]; 3 mg/kg i.d.): 19%; activation at 1 µg/mL (Purkinje fiber): 17%
 |  | CCCCCCC[N+](CC)(CC)CCCOc1ccc2c(c1)OCC2O (stereo not drawn) [Compound 470] | > 300 mg/kg | 0% | 0% | 2% | 8% | 16% | 20% | activation at 1 µg/mL (Purkinje fiber): 13%
 |  | CCCCCCC[N+](CC)(CC)CCCOc1ccc2oc(=O)cc(C)c2c1 [Compound 630] | > 300 mg/kg | 3% | 5% | 8% |  | 25% | 48% | 
 |  | CC1CCCCN1CCCOc1ccc2c(c1)OCC2=O (stereo not drawn) [Compound 1114] | > 300 mg/kg |  |  | 3% | 8% | 22% | 35% | activation at 1 µg/mL (Purkinje fiber): 11%
 |  | CC1CCN(CCCOc2ccc3c(c2)OCC3=O)CC1 [Compound 1122] | > 300 mg/kg |  |  | 9% | 15% | 15% | 42% | activation at 1 µg/mL (Purkinje fiber): 4%
> 600 nM | > 400 nM | O=C1COc2cc(OCCCN3CCc4ccccc4C3)ccc21 [Compound 1162] |  |  |  |  |  |  |  | 
> 600 nM | > 400 nM | CN1CCN(CCCOc2ccc3c(c2)OCC3=O)CC1 [Compound 1178] |  |  |  |  |  |  |  | 
> 600 nM | > 400 nM | O=C1COc2cc(OCCCN3CCN(Cc4ccccc4)CC3)ccc21 [Compound 1182] |  |  |  |  |  |  |  | 
315 nM | > 400 nM | CN1C(=O)Cc2cnc(N3CCN(CCCOc4ccc5c(c4)OCC5=O)CC3)nc21 [Compound 1186] |  |  |  |  |  |  |  | 
> 600 nM | > 400 nM | O=C1COc2cc(OCCCN3CCC(N4CCCCC4)CC3)ccc21 [Compound 1228] |  |  |  |  |  |  |  | 
> 600 nM | > 400 nM | O=C1COc2cc(OCCCN3CCN(c4ccccn4)CC3)ccc21 [Compound 1264] |  |  |  |  |  |  |  | 
 |  | CCC1CCN(CCCOc2ccc3c(c2)OCC3=O)CC1 [Compound 1274] |  | 0% | 6.7% | 13.3% | 13.3% | 19% |  | LD50 at 24 h (in vivo; po): < 300 mg/kg; activation at 1 µg/mL (Purkinje fiber): 6%
 |  | CC(C)C1CCN(CCCOc2ccc3c(c2)OCC3=O)CC1 [Compound 1278] | > 300 mg/kg | 1.6 ± 1.6% | 4.8 ± 1.6% | 13 ± 2.4% | 19.8 ± 0.6% | 9% | 24% | 
 |  | CCOC(=O)C1CCN(CCCOc2ccc3c(c2)OCC3=O)CC1 [Compound 1282] | > 300 mg/kg | 0% | 0% | 6% | 6% | 11% | 19% | 
 |  | O=C1COc2cc(OCCCN3CCC(CO)CC3)ccc21 [Compound 1290] |  | 0% | 5.9% | 11.8% | 17.7% | 11% | 28% | LD50 at 24 h (in vivo; po): < 300 mg/kg
> 600 nM | > 400 nM | O=c1cc(-c2ccccc2)c2ccc(OCCCN3CCC(Cc4ccccc4)CC3)cc2o1 [Compound 1330] |  |  |  |  |  |  |  | 
227 nM | > 400 nM | O=C1NC(=O)c2cc(OCCCN3CCC(Cc4ccccc4)CC3)ccc21 [Compound 1334] |  |  |  |  |  |  |  | 

Compound | Ki (serotonine 2 receptor) | Ki (dopamine 2 receptor) | LD50 at 24 h (in vivo; [2]) | change in vivo at 0.1 mg/kg ([1]; iv, 0.1 mg/kg i.v.) | change in vivo at 0.3 mg/kg ([1]; iv, 0.3 mg/kg i.v.) | change in vivo at 1 mg/kg ([1]; iv, 1 mg/kg i.v.) | change in vivo at 3 mg/kg ([1]; iv, 3 mg/kg i.v.) | activation at 3 µg/mL (Purkinje fiber) | activation at 10 µg/mL (Purkinje fiber) | other results
O=C1COc2cc(OCCCN3CCC(c4ccccc4)CC3)ccc21 [Compound 1138] | 173 nM | 329 nM |  |  |  |  |  |  |  | 
O=C1COc2cc(OCCCN3CCC(O)(c4ccc(Cl)cc4)CC3)ccc21 [Compound 1154] | > 298 nM | > 400 nM |  |  |  |  |  |  |  | 
O=C1COc2cc(OCCCN3CCC4(CC3)C(=O)NCN4c3ccccc3)ccc21 [Compound 1246] | > 600 nM | > 400 nM |  |  |  |  |  |  |  | 
